Source: article PMC9603946, “On the Sensitivity of the Virion Envelope to Lipid Peroxidation” (Microbiology Spectrum, 2022)
Where two headings read alike, the source gives them in different places.

How the values were obtained:
HSV-1 [1] = experiment: HSV-1 virion infectivity (plaquing efficiency) on Vero cells after virion pretreatment; details: Vero; for EC50: Human alphaherpesvirus 1, Vero
Description: (§1) The inocula were removed, and the cells were washed and then incubated at 37°C in 5% CO2 until plaques were visible and well-resolved (about 2 days), at which time they were fixed and stained with crystal violet.
(§2) HSV-1 suspensions of 20,000 plaque PFU in 250 μL DMEM were mixed 1:1 with 2-fold serial dilutions of the general peroxidators and were incubated in a water bath for 2 h at 37°C. Next, treated virions were diluted 1:100 before being adsorbed onto cells for 1 h at 37°C. The inocula were removed, and the cells were washed twice with cold DMEM. Infected cells were overlaid with DMEM supplemented with 2% (Vero) or 1% (HFF) methylcellulose and 5% FBS and were incubated at 37°C until plaques were visible and well-resolved, typically in about 2 days. Cell monolayers were fixed and stained with 1% crystal violet in 17% methanol for 18 h at RT. The cells were washed, and the plaques were counted and normalized to those produced by the vehicle treated virions.
(§3) To test the effects of lipid soluble antioxidants on virions, 10 μM vitamin E loaded onto 1% carrier BSA in the dark for 4.5 h at RT was incubated with 10^6 HSV-1 virions for 3 h at 37°C. […] The treated virions were diluted 1:100 before infecting cells. […] The mix was incubated for 2 h at 37°C, diluted 1:100, and used to infect cells. The infectivity of an aliquot of treated virions was tested via a plaque assay.

HSV-1 [2] = experiment: HSV-1 virion infectivity (plaquing efficiency) on HFF cells after virion pretreatment; details: for EC50: Human alphaherpesvirus 1, HFF
Description: as §1, §2, §3

Vero cells [3] = experiment: Vero cell lipid peroxidation probed with C11-Bodipy; assay type: cell-based, African green monkey; details: for EC50: Chlorocebus sabaeus, Bodipy probe
Description: (§4) The effects of peroxidators have been commonly evaluated against purified lipids and liposomes as a proxy, but they have not been evaluated against virions ([50], [53][–][55]). We instead directly evaluated the extent of virion lipid peroxidation.
To evaluate Vero cell lipoperoxidation with C11-Bodipy, 7.5 × 10^3 cells were seeded into each well of 96-well plates and incubated for 18 h at 37°C in 5% CO2 before preloading them with 1 μM C11-Bodipy for 30 min at 37°C. […] Two hours later, the cells were washed twice and lysed with DMSO:isopropanol. Fluorescence was evaluated in a TECAN Infinite M200 Pro at 550 nm excitation and 580 to 630 nm emission with the reading peak at 600 nm.
(§5) To evaluate the effects of a lipid soluble antioxidant, cells or virions were preloaded with vitamin E-BSA for 3 h at 37°C. Vitamin E-BSA containing medium was removed, and the cells were washed twice with DMEM. Liperfluo (20 or 10 μM for cells or virions, respectively) or C11-Bodipy (1 μM for cells or 0.1 mol% for virions) were preloaded into the cells or virions for 30 min at 37°C.
(§6) To evaluate the effects of water soluble antioxidants, liperfluo (20 μM for cells or 10 μM for virions) or C11-Bodipy (1 μM for cells or 0.1 mol% for virions) were preloaded into the cells or virions for 30 min at 37°C. […] Fluorescence was evaluated in a TECAN Infinite M200 Pro at 515 nm excitation and 545 nm emission for liperfluo or at 550 nm excitation and 580 to 630 nm emission for C11-Bodipy.

HSV-1 virions [4] = experiment: HSV-1 virion lipid peroxidation probed with C11-Bodipy; parameters: species or system HSV-1 KOS; details: Human alphaherpesvirus 1, Bodipy probe
Description: as §4
To evaluate virion lipoperoxidation with C11-Bodipy, 50 μL DMEM containing 5 × 10^6 PFU of HSV-1 was added into each well of 96-well plates. Virions were then preloaded with 0.1 mol % of C11-Bodipy for 30 min at 37°C. […] Fluorescence was evaluated in a TECAN Infinite M200 Pro at 550 nm excitation and 580 to 630 nm emission with the reading peak at 600 nm.
as §5, §6

HSV-1 virions [5] = experiment: microbe, parasite or virus in culture; parameters: species or system HSV-1 KOS
Description: as §4
To evaluate virion peroxidation using liperfluo, 50 μL DMEM that contained 5 × 10^6 PFU of HSV-1 was added to 96-well plates. Virions were then preloaded with 10 μM liperfluo for 20 min at 37°C. […] Fluorescence was evaluated in a TECAN Infinite M200 Pro at 515 nm excitation and 545 nm emission. Medium containing no virus was used as blank.
as §5, §6

Vero cells [6] = experiment: Viability of Vero cells infected with AMVN-pretreated virions
Description: (§7) The inocula were removed, the cells were washed, and the viability was immediately evaluated, mimicking the conditions used to test the direct exposure of the cells to the peroxidators.
(§8) After 1 h at 37°C, the cells were washed, and cell viability was evaluated as described.

HFF cells = experiment: Viability of HFF cells infected with AMVN-pretreated virions
Description: as §7, §8

[7] = 2 h, no antioxidant, virions treated 2 h at 37°C
[8] = virions preloaded with vitamin E (10 μM, BSA carrier)
[9] = pretreated virions diluted 1:100

CC(C)CC(C)(C#N)N=NC(C)(C#N)CC(C)C (stereo not drawn) [AMVN, 2,2′-azobis(2,4-dimethylvaleronitrile)]
EC50 (HSV-1 [1]; [7]): 800 µM | EC50 (HSV-1 [1]; [8]): 3800 µM | EC50 (HSV-1 [1]; with vitamin C (10 μM)): 2600 µM | concentration of maximal inhibition of virion infectivity (HSV-1 [1]): 5 mM | concentration giving a loss of infectivity of about 30% (HSV-1 [1]; 2 h at 37°C): 0.3 mM | SI, CC50/EC50 (HSV-1 [1]; vitamin C): 1.3 | SI, CC50/EC50 (HSV-1 [1]; vitamin E): 1.2 | lowest concentration that decreased virion infectivity in the presence of BSA (HSV-1 [1]; with BSA): 2.5 mM | lowest effective concentration on infectivity in the presence of the antioxidants (HSV-1 [1]; with antioxidants): 1.5 mM | concentration from which virion infectivity was affected (HSV-1 [2]): 0.7 mM | concentration giving a loss of infectivity of about 30% (HSV-1 [2]; 2 h at 37°C): 0.7 mM | EC50 (HSV-1 [2]; [7]): 1100 µM | EC50 (HSV-1 [2]; [8]): 2700 µM | EC50 (HSV-1 [2]; with vitamin C (10 μM)): 1400 µM | SI, CC50/EC50 (HSV-1 [2]; vitamin C): 3.1 | SI, CC50/EC50 (HSV-1 [2]; vitamin E): 1.8 | lowest concentration affecting cell lipid peroxidation (Vero cells [3]; C11-Bodipy (Fig. 8)): 2.5 mM | EC50 (Vero cells [3]; no antioxidant, read-out: CP50 (concentration of peroxidant that results in 50% peroxidation in cell lipids)): 2100 µM | EC50 (Vero cells [3]; vitamin C, read-out: CP50 (the source's name)): 1700 µM | EC50 (Vero cells [3]; vitamin E, read-out: CP50 (the source's name)): 3500 µM | EC50 (HSV-1 virions [4]; no antioxidant, read-out: VP50 (concentration of peroxidant that results in 50% peroxidation in virion lipids)): 2700 µM | EC50 (HSV-1 virions [4]; vitamin C, read-out: VP50 (the source's name)): 2000 µM | EC50 (HSV-1 virions [4]; vitamin E, read-out: VP50 (the source's name)): 2400 µM | EC50 (HSV-1 virions [5]; Human alphaherpesvirus 1, read-out: VP50, Liperfluo probe, no antioxidant): 1200 µM | EC50 (HSV-1 virions [5]; Human alphaherpesvirus 1, read-out: VP50, Liperfluo probe, vitamin C): 1200 µM | EC50 (HSV-1 virions [5]; Human alphaherpesvirus 1, read-out: VP50, Liperfluo probe, vitamin E): 900 µM | decrease of infected cell viability at the highest AMVN concentration (Vero cells [6]; AMVN carried by virions): 20 to 30% | concentration from which AMVN carried by virions had minor effects on infected cell viability (Vero cells [6]; [9]): 2000 µM | decrease of infected cell viability at the highest AMVN concentration (HFF cells; AMVN carried by virions): 20 to 30% | concentration from which AMVN carried by virions had minor effects on infected cell viability (HFF cells; [9]): 3000 µM
